Target: T1, 5α-Reductase of Rat Liver Microsomes (Rattus norvegicus, UniProt P24008)
T1 sequence (P24008 1-259): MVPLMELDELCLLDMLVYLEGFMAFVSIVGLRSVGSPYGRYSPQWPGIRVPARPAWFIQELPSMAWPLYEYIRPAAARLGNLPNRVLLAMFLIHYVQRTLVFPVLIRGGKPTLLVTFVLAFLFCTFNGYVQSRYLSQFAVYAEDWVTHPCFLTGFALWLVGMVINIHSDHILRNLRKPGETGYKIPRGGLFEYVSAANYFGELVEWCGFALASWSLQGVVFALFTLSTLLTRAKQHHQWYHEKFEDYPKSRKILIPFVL
Experiment: biochemical
Conditions: for inhibition at 5 µM: read-out: % Inhibition of [^3 H]4-MA binding, Table 2, 5 μM; for inhibition at 10 µM: read-out: % Inhibition of [^3 H]4-MA binding, Table 2, 10 μM; for inhibition at 40 µM: read-out: % Inhibition of [^3 H]4-MA binding, Table 2, 40 μM; for inhibition at 200 µM: read-out: % Inhibition of [^3 H]4-MA binding, Table 2, 200 μM

SMILES | IC50 [µM] | inhibition at 5 µM [%] | inhibition at 10 µM [%] | inhibition at 40 µM [%] | inhibition at 200 µM [%]
CCCCC/C=C\C/C=C\C/C=C\C/C=C\CCCCCC(=O)O | 46 | < 10 | < 10 | 41 | 79
CCCCCCCC/C=C\CCCCCCCCCCC(=O)O | 154 | < 10 | 15 | 25 | 60
CCCCCCCCC=CCC=CCC=CCCCC(=O)O [5,8,11-eicosatrienoic acid] | 50 |  |  |  | 
CCCCCCCCCCCCCC/C=C\CCCC(=O)O [5-Eicosenoic Acid, 5-eicosenoic acid] | > 200 | < 10 | < 10 | < 10 | < 10
CCCCC/C=C\C/C=C\C/C=C\CCCCCCC(=O)O [8,11,14-cis-Eicosatrienoic Acid, 8,11,14-eicosatrienoic acid] | 15 | < 10 | 42 | 92 | 82
CCCCCCCCCCC/C=C\CCCCCCC(=O)O [8-Eicosenoic Acid, 8-eicosenoic acid] | 48 | 14 | 41 | 52 | 81
CCCCC/C=C\C/C=C\CCCCCCCCC(=O)O [10,13-Nonadecadienoic Acid, 10,13-nonadecadienoic acid] | 86 | < 10 | < 10 | 37 | 83
CCCC/C=C\CCCCCCCCC(=O)O [10-Pentadecenoic Acid, 10-pentadecenoic acid] | 100 | < 10 | < 10 | < 10 | 71
CCCCCC/C=C\CCCCCCCCC(=O)O [10-cis-Heptadecenoic Acid, 10-heptadecenoic acid] | 28 | < 10 | < 10 | 83 | 84
CCCCCCCC/C=C\CCCCCCCCC(=O)O [10-cis-Nonadecenoic Acid, 10-nonadecenoic acid] | 130 | < 10 | < 10 | 13 | 79
CCCCCC/C=C/CCCCCCCCC(=O)O [10-trans-Heptadecenoic Acid, 10-trans-heptadecenoicacid] | > 200 | < 10 | < 10 | < 10 | 40
CCCCCCCC/C=C/CCCCCCCCC(=O)O [10-trans-Nonadecenoic Acid, 10-trans nonadecenoic acid] | > 200 | < 10 | < 10 | < 10 | 32
CC/C=C\C/C=C\C/C=C\CCCCCCCCCC(=O)O [11,14,17-cis-Eicosatrienoic Acid, 11,14,17-eicosatrienoic acid] | 29 | < 10 | 1 | 78 | 94
CC/C=C\C/C=C\C/C=C\CCCCCCCCCC(=O)Cl [11,14,17-cis-Eicosatrienoyl Chloride, 11,14,17-eicosatrienoyl chloride] | > 200 | < 10 | < 10 | < 10 | < 10
CCCCC/C=C\C/C=C\CCCCCCCCCC(=O)OC [11,14-cis-Eicosadienoate, methyl 11,14 eicosadienoate] | > 200 | < 10 | < 10 | < 10 | < 10
CCCCC/C=C\C/C=C\CCCCCCCCCC(=O)O [11,14-cis-Eicosadienoic Acid, 11,14 eicosadienoic acid] | 131 | < 10 | < 10 | < 10 | 89
